What was measured:
FesR [1] = target: T1, FesR (Alishewanella sp. WH16-1, UniProt A0A0T5PLD3); assay: residual Cr(VI) by diphenylcarbazide colorimetry; format: biochemical; conditions: 1 mmol/L NADPH, pH 7.0, 50 °C, Tris-HCl, 10 min, no added FAD
T1 construct: Full-length, no signal peptide predicted, GST-tagged (pGEX-6p-1), eluted with glutathione, expressed in E. coli BL21(DE3); predicted 127 kDa with tag; FAD domain 16-520, two 4Fe-4S clusters 525-625

FesR [2] = target: T2, FesR (Alishewanella sp. WH16-1, UniProt A0A0T5PLD3, R385A); assay: enhancement of Cr(VI) and Se(IV) reduction by added FAD; format: biochemical; conditions: […] FAD, […] NADPH, […] K2CrO4 or Na2SeO3, optimum pH and temperature (pH […] °C)
T2 construct: gene AAY72_06850; Full-length, no signal peptide predicted, GST-tagged (pGEX-6p-1), eluted with glutathione, expressed in E. coli BL21(DE3); predicted 127 kDa with tag; FAD domain 16-520, two 4Fe-4S clusters 525-625
T2 sequence (A0A0T5PLD3 1-919 R385A): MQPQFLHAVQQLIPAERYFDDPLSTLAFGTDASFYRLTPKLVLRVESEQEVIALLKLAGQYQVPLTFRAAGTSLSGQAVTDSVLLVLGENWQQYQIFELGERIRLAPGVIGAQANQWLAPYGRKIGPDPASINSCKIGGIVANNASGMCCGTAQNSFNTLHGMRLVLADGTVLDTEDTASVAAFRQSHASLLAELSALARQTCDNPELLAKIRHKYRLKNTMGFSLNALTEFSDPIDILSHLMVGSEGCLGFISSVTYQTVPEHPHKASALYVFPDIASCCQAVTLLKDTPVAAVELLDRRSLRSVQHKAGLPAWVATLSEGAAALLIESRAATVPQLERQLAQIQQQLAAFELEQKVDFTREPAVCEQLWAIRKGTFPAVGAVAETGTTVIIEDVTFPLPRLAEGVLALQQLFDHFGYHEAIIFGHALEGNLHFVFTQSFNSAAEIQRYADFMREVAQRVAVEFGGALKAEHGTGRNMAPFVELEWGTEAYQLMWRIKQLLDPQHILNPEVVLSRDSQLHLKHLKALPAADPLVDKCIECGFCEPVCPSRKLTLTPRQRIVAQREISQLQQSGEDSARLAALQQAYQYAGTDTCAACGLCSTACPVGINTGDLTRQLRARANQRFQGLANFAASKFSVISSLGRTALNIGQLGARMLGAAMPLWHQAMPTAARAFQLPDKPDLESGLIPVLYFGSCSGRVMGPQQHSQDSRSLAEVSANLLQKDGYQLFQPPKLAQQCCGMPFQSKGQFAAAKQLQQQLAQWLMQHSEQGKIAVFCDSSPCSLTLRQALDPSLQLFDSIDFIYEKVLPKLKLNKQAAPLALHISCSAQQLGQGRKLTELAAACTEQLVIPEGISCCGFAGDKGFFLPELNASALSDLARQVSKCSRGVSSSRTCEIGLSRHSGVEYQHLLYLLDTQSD

O=[Se](O)O = assay: purified protein; conditions: 1 mmol/L NADPH, pH 7.0, 50 °C, Tris-HCl, 10 min, no added FAD

## [O]=[Cr](=[O])([OH])[OH] [Cr(VI)]
FesR [1]
  Km: 1680 ± 126 µM

## Cc1cc2nc3c(=O)[nH]c(=O)nc-3n(C[C@H](O)[C@H](O)[C@H](O)COP(=O)(O)OP(=O)(O)OC[C@H]3O[C@@H](n4cnc5c(N)ncnc54)[C@H](O)[C@@H]3O)c2cc1C [FAD]
FesR [2]
  enhancement of Cr(VI) and Se(IV) reduction by added FAD: FAD couldn’t enhance the enzyme activity of FesR when the predicted FAD-binding residue Arg385 was mutated

## FesR (Alishewanella sp. WH16-1)
O=[Se](O)O
  Km: 1164.0 ± 89.4 µM

Source: paper PMC8957926, “Identification of a Novel Chromate and Selenite Reductase FesR in Alishewanella sp. WH16-1” (Frontiers in Microbiology, 2022)
